Results published in PubChem BioAssay (NCI).
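Interpolation was linear, between the two tested concentrations surrounding the appropriate level; five concentrations were tested over 48 hours in 96-well plates. Here, GI50 denotes the concentration required for 50% inhibition of growth. TGI marks complete inhibition of growth.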

What was measured:
Assay in all cases: NCI tumour cell line growth inhibition, 48 h
RXF 393 renal = test system: RXF 393 renal
OVCAR-4 ovarian = test system: OVCAR-4 ovarian
LXFL 529 NSCLC = test system: LXFL 529 NSCLC
DMS 273 small cell lung = test system: DMS 273 small cell lung
SN12C renal = test system: SN12C renal
CCRF-CEM leukemia = test system: CCRF-CEM leukemia
KM12 colon = test system: KM12 colon
UO-31 renal = test system: UO-31 renal
MDA-MB-231 breast = test system: MDA-MB-231 breast
PC-3 prostate = test system: PC-3 prostate

`CC(C)=CC(=O)Oc1ccc([N+](=O)[O-])cc1` showed a TGI (RXF 393 renal) greater than 100 µM, a TGI (OVCAR-4 ovarian) greater than 100 µM and a TGI (LXFL 529 NSCLC) greater than 100 µM. For the same molecule, the TGI (DMS 273 small cell lung) was greater than 100 µM, the TGI (SN12C renal) was greater than 100 µM and the TGI (CCRF-CEM leukemia) was greater than 100 µM. The TGI (KM12 colon) was greater than 100 µM and the TGI (UO-31 renal) was greater than 100 µM.
`Cc1cccc(C)c1NC(=O)/C(Cl)=C(/Cl)C(=O)O` showed a TGI (RXF 393 renal) of 33.9 µM, a TGI (OVCAR-4 ovarian) of 33.5 µM and a TGI (LXFL 529 NSCLC) of 15.2 µM. For the same molecule, the TGI (MDA-MB-231 breast) was 41.7 µM, the TGI (DMS 273 small cell lung) was 35.9 µM and the TGI (PC-3 prostate) was 50.4 µM. The TGI (SN12C renal) was 33.7 µM, the TGI (CCRF-CEM leukemia) was 14.1 µM and the TGI (KM12 colon) was 23 µM. The TGI (UO-31 renal) was 21.7 µM.
With `COC1/C(=C\C(=O)OC(C)(C)C)c2ccccc2N1C(C)=O` (stereo not given) the TGI (RXF 393 renal) was greater than 100 µM, the TGI (OVCAR-4 ovarian) was greater than 100 µM and the TGI (LXFL 529 NSCLC) was greater than 100 µM. It also gave a TGI (DMS 273 small cell lung) greater than 100 µM, a TGI (SN12C renal) greater than 100 µM and a TGI (CCRF-CEM leukemia) greater than 100 µM. For the same molecule, the TGI (KM12 colon) was greater than 100 µM and the TGI (UO-31 renal) was greater than 100 µM.
`CC(=O)NC1=C(Nc2ccc(C)cc2)C(=O)c2ccccc2C1=O` was tested, and the TGI (RXF 393 renal) was greater than 75 µM, the TGI (OVCAR-4 ovarian) was 46.8 µM and the TGI (LXFL 529 NSCLC) was greater than 75 µM. For the same molecule, the TGI (DMS 273 small cell lung) was 61 µM, the TGI (SN12C renal) was 44 µM and the TGI (CCRF-CEM leukemia) was 58.4 µM. The TGI (KM12 colon) was greater than 75 µM and the TGI (UO-31 renal) was greater than 75 µM.
In the case of `O=C(O)c1c2c(c(C(=O)O)c3ccccc13)-c1ccccc1-2`, the TGI (RXF 393 renal) is reported as 66.9 µM, the TGI (LXFL 529 NSCLC) is reported as greater than 100 µM and the TGI (DMS 273 small cell lung) is reported as greater than 100 µM. For the same molecule, the TGI (SN12C renal) was greater than 100 µM, the TGI (CCRF-CEM leukemia) was greater than 100 µM and the TGI (KM12 colon) was greater than 100 µM. For the same molecule, the TGI (UO-31 renal) was greater than 100 µM.
`COC(=O)/C=C(C)/C=C/c1cc(C(C)=O)c(C)o1` gave a TGI (OVCAR-4 ovarian) greater than 100 µM, a TGI (LXFL 529 NSCLC) greater than 100 µM and a TGI (CCRF-CEM leukemia) greater than 100 µM. It also gave a TGI (KM12 colon) greater than 100 µM and a TGI (UO-31 renal) greater than 100 µM.
For `CC(=O)[CH-]C(=O)c1ccccc1.CC(=O)[CH-]C(=O)c1ccccc1.CC(=O)[CH-]C(=O)c1ccccc1.[Tl+3]`, the GI50 (RXF 393 renal) was 56.2 µM, the TGI (RXF 393 renal) was greater than 100 µM and the GI50 (OVCAR-4 ovarian) was 26.1 µM. For the same molecule, the TGI (OVCAR-4 ovarian) was greater than 100 µM, the GI50 (LXFL 529 NSCLC) was 56.2 µM and the TGI (LXFL 529 NSCLC) was greater than 100 µM. It also gave a GI50 (SN12C renal) of 72.6 µM, a TGI (SN12C renal) greater than 100 µM and a GI50 (CCRF-CEM leukemia) of 6.81 µM. The TGI (CCRF-CEM leukemia) was 30.9 µM, the GI50 (KM12 colon) was 42.8 µM and the TGI (KM12 colon) was greater than 100 µM. The GI50 (UO-31 renal) was 30.2 µM and the TGI (UO-31 renal) was greater than 100 µM.
`CCOc1cc2c(cnc3c4cc(OC)c(OC)cc4ccc23)cc1OC` was tested, and the TGI (OVCAR-4 ovarian) was greater than 100 µM, the TGI (LXFL 529 NSCLC) was greater than 100 µM and the TGI (SN12C renal) was greater than 100 µM. For the same molecule, the TGI (CCRF-CEM leukemia) was greater than 100 µM, the TGI (KM12 colon) was greater than 100 µM and the TGI (UO-31 renal) was greater than 100 µM.
For `OCC(O)C(O)C(O)C1SC(c2ccccc2)=NN1c1ccccc1` (stereo not given), the TGI (RXF 393 renal) was 47.9 µM, the TGI (OVCAR-4 ovarian) was greater than 100 µM and the TGI (LXFL 529 NSCLC) was greater than 100 µM. The TGI (MDA-MB-231 breast) was greater than 91.6 µM, the TGI (DMS 273 small cell lung) was greater than 100 µM and the TGI (PC-3 prostate) was greater than 100 µM. The TGI (SN12C renal) was greater than 100 µM, the TGI (CCRF-CEM leukemia) was greater than 100 µM and the TGI (KM12 colon) was greater than 100 µM. For the same molecule, the TGI (UO-31 renal) was greater than 100 µM.
In the case of `COc1ccc2c([nH]c3cc(O)c(C)cc32)c1C=O`, the TGI (RXF 393 renal) is reported as greater than 25 µM, the TGI (OVCAR-4 ovarian) is reported as greater than 25 µM and the TGI (LXFL 529 NSCLC) is reported as greater than 25 µM. For the same molecule, the TGI (DMS 273 small cell lung) was greater than 25 µM, the TGI (SN12C renal) was greater than 25 µM and the TGI (CCRF-CEM leukemia) was greater than 25 µM. It also gave a TGI (KM12 colon) greater than 25 µM and a TGI (UO-31 renal) greater than 25 µM.
`N/N=C(\CC1OC(=O)c2ccccc21)c1ccco1` (stereo not given) showed a TGI (RXF 393 renal) greater than 100 µM, a TGI (OVCAR-4 ovarian) greater than 100 µM and a TGI (LXFL 529 NSCLC) greater than 100 µM. For the same molecule, the TGI (DMS 273 small cell lung) was greater than 100 µM, the TGI (CCRF-CEM leukemia) was greater than 100 µM and the TGI (KM12 colon) was greater than 100 µM. The TGI (UO-31 renal) was greater than 100 µM.
`COc1ccc(C(=O)C(c2ccc(OC)cc2)C2(O)C(=O)Nc3c(C)cc(Cl)cc32)cc1` (stereo not given) showed a TGI (RXF 393 renal) greater than 100 µM, a TGI (OVCAR-4 ovarian) greater than 100 µM and a TGI (LXFL 529 NSCLC) greater than 100 µM. It also gave a TGI (DMS 273 small cell lung) greater than 100 µM, a TGI (SN12C renal) greater than 100 µM and a TGI (CCRF-CEM leukemia) of 47.7 µM. The TGI (KM12 colon) was greater than 100 µM and the TGI (UO-31 renal) was greater than 100 µM.
In the case of `CC1(CO)OC1COCc1ccccc1` (stereo not given), the TGI (RXF 393 renal) is reported as greater than 100 µM, the TGI (LXFL 529 NSCLC) is reported as greater than 100 µM and the TGI (DMS 273 small cell lung) is reported as greater than 100 µM. It also gave a TGI (SN12C renal) greater than 100 µM, a TGI (CCRF-CEM leukemia) greater than 100 µM and a TGI (KM12 colon) greater than 100 µM. It also gave a TGI (UO-31 renal) greater than 100 µM.
Work on `CC(=O)OCSc1ncnc2c1ncn2CN1CCOCC1` yielded a TGI (RXF 393 renal) greater than 100 µM, a TGI (OVCAR-4 ovarian) greater than 100 µM and a TGI (LXFL 529 NSCLC) greater than 100 µM. It also gave a TGI (DMS 273 small cell lung) greater than 100 µM, a TGI (SN12C renal) greater than 100 µM and a TGI (CCRF-CEM leukemia) greater than 100 µM. It also gave a TGI (KM12 colon) greater than 100 µM and a TGI (UO-31 renal) greater than 100 µM.
`O=C(CNC(=O)OCc1ccccc1)Oc1ccccc1` showed a TGI (RXF 393 renal) greater than 100 µM, a TGI (OVCAR-4 ovarian) greater than 100 µM and a TGI (LXFL 529 NSCLC) greater than 100 µM. It also gave a TGI (DMS 273 small cell lung) greater than 100 µM, a TGI (SN12C renal) greater than 100 µM and a TGI (CCRF-CEM leukemia) greater than 100 µM. For the same molecule, the TGI (KM12 colon) was greater than 100 µM and the TGI (UO-31 renal) was greater than 100 µM.
`COc1cc2c(c(OC)c1OC)-c1ccc(SC)c(=O)cc1[C@@H](NC(=O)c1ccc(OC(C)=O)cc1)CC2` showed a TGI (RXF 393 renal) of 0.0813 µM, a GI50 (OVCAR-4 ovarian) of 10.6 µM and a TGI (OVCAR-4 ovarian) of 23.1 µM. For the same molecule, the TGI (DMS 273 small cell lung) was greater than 100 µM, the TGI (SN12C renal) was 18.8 µM and the TGI (CCRF-CEM leukemia) was greater than 100 µM. The TGI (KM12 colon) was 0.0407 µM and the TGI (UO-31 renal) was 73 µM.
